This is an account of results in patent US20250064707A1, “PEPTIDE HAVING ANTI-AGING ACTIVITY, AND USE THEREOF” (CAREGEN CO., LTD., priority 2021, published 2025).

The test system of test [1] is HaCaT cells. The test is described as follows: RT-PCR expression of skin barrier genes (SIRT1, AQP3) in keratinocytes. Type of test: cell-based, human. The following applies: peptide 10, 50, 100 μM, 24 hours. The protocol:
First, HaCaT cells were seeded in a 6-well plate at a cell density of 3×10^5 cell/well, and then the cells were cultured in DMEM medium containing 10% fetal bovine serum (FBS) for 24 hours. The cultured cells were washed once with serum free DMEM medium, and then the peptide of the present invention was mixed in 1 mL of the serum free DMEM medium at each of concentrations of 10, 50, and 100 μM, and dispensed into the cells. A positive control (PC) was treated with 100 nM of EGF instead of the above peptide. The cells were cultured in a CO2 incubator at 37° C. for 24 hours.
The cultured cells were washed twice with PBS, and then RNA was extracted from the cells using easy blue (iNtRON, Cat. No.: 17061, Korea). The extracted RNA was subjected to RT reaction using a kit (enzynomics, Cat. No.: RT200, Korea). Thereafter, RT-PCR was performed using a PCR kit (enzynomics, Cat. No.: R581T, Korea). The sequences of the primers of SIRT1 and AQP3 used in RT-PCR are shown in [Table 3]. The sequence of the primer of GAPDH used to compare the total RNA amount of each treatment group is shown in [Table 2].

Test [2] concerns HaCaT cells. The test is described as follows: RT-PCR expression of SIRT1 and AQP3 decreased by UVB irradiation. Format: cell-based, human. The following applies: peptide 10, 50, 100 μM, 15 J/cm^2 UVB, 24 hours. The protocol:
The expression of genes related to the skin barrier strengthening function is inhibited when irradiated with UV.
First, HaCaT cells were seeded in a 6-well plate at a cell density of 3×10^5 cell/well, and then the cells were cultured in DMEM medium containing 10% fetal bovine serum (FBS) for 24 hours. The cultured cells were washed once with serum free DMEM medium, and then the peptide of the present invention was mixed in 1 mL of the serum free DMEM medium at each of concentrations of 10, 50, and 100 μM, and dispensed into the cells. A positive control (PC) was treated with 2.5 mM of N-acetylcysteine (NaC) instead of the above peptide. The cells were cultured in a CO2 incubator at 37° C. for 1 hour.
The cultured cells were washed twice with PBS, 1 ml of PBS was added, and irradiation was performed with 15 J/cm^2 of UVB using a UV irradiator (VILBER LOURMAT, Cat No.: 3102-BSU, France). After removing PBS, 900 μL of the medium transferred to the tube was dispensed, and culture was performed in a CO2 incubator at 37° C. for 24 hours. The cultured cells were washed twice with PBS, and then RNA was extracted from the cells using easy blue (iNtRON, Cat. No.: 17061, Korea). The extracted RNA was subjected to an RT reaction using an RNA kit (enzynomics, Cat. No.: P581T, Korea). Thereafter, RT-PCR was performed using a PCR kit (enzynomics, Cat. No.: R581T, Korea). […]

For test [3], the system named is HaCaT cells. The test is described as follows: Western blot of apoptotic-inducing factors (cleaved PARP-1, cleaved Caspase-3) increased by UVB irradiation. Type of test: cell-based, human. The following applies: peptide 10, 50, 100 μM, 15 J/cm^2 UVB, 24 hours. The protocol: Expression of the apoptotic-inducing factors increases when irradiated with UV. Therefore, it was confirmed whether the photoaging phenomenon of the cells was inhibited and the damaged cells were regenerated by confirming whether the increased expression levels of the apoptotic-inducing factors such as cleaved PARP-1 and cleaved Caspase-3 decreased again when treated with the peptide of the present invention.
First, HaCaT cells were seeded in a 6-well plate at a cell density of 5×10^5 cell/well, and then the cells were cultured in DMEM medium containing 10% fetal bovine serum (FBS) for 24 hours. The cultured cells were washed once with serum free DMEM medium, and then the peptide of the present invention was mixed in 1 mL of the serum free DMEM medium at each of concentrations of 10, 50, and 100 μM, and dispensed into the cells. A positive control (PC) was treated with 2.5 mM of N-acetylcysteine (NaC) instead of the above peptide.
The cells were cultured in a CO2 incubator at 37° C. for 1 hour, the medium of the cultured cells was transferred to a tube, 1 mL of PBS was added, and then irradiation was performed with 15 J/cm^2 of UVB using a UV irradiator (VILBER LOURMAT, Cat No.: 3102-BSU, France). After removing PBS, 900 μL of the medium transferred to the tube was added again, and culture was performed in a CO2 incubator at 37° C. for 24 hours. […]
On the technique in general: In western blotting, separated proteins are transferred to a membrane and probed.

For test [4], the system named is HaCaT cells. The test is described as follows: Intracellular reactive oxygen species after UVB irradiation (DCFH-DA, FACS). Format: cell-based, human. The following applies: peptide 10, 50, 100 μM, 1 hour before 15 J/cm^2 UVB, 24 hours after. As for the experimental part:
The reactive oxygen species level increases when UV is irradiated. Therefore, it was confirmed whether the reactive oxygen species level decreased again and the aging phenomenon caused by oxidative stress in cells was inhibited when treated with the peptide of the present invention.
First, HaCaT cells were seeded in a 6-well plate at a cell density of 5×10^5 cell/well, and then the cells were cultured in DMEM medium containing 10% fetal bovine serum (FBS) for 24 hours. The cultured cells were washed once with serum free DMEM medium, and then the peptide of the present invention was mixed in 1 mL of the serum free DMEM medium at each of concentrations of 10, 50, and 100 μM, and dispensed into the cells. A positive control (PC) was treated with 25 μM of Trolox instead of the above peptide.
The cells were cultured in a CO2 incubator at 37° C. for 1 hour. The medium of the cultured cells was transferred to a tube, 1 ml of PBS was added, and irradiation was performed with 15 J/cm^2 of UVB using a UV irradiator (VILBER LOURMAT, Cat No.: 3102-BSU, France). After removing PBS, 900 μL of the medium transferred to the tube was dispensed, and culture was performed in a CO2 incubator at 37° C. for 24 hours. […] After centrifugation, the cells were washed with PBS, and a fluorescence value was measured through FACS.

The subject of the next test is NIH3T3 cells. The test is described as follows: Collagen ELISA and hyaluronic acid ELISA of culture medium, fibroblasts. The following applies: peptide 50 μM, 100 μM, 72 hours. Type of test: cell-based, mouse. The protocol:
(§1) First, NIH3T3 cells and HaCaT cells (human keratinocyte cell line) were seeded in a 24-well plate at a cell density of 1×10^4 cell/well, and then the cells were cultured in DMEM medium containing 10% fetal bovine serum (FBS) for 24 hours. The cultured cells were washed once with serum free DMEM medium, and the peptide of the present invention was mixed in 2 mL of the serum free DMEM medium at each of concentrations of 50 μM, 100 μM, and 5 ng/ml, and dispensed into three wells by 500 μL per condition. The NIH3T3 cells were treated with 5 ng/ml of TGF-β1 instead of the above peptide as a positive control (PC). The HaCaT cells were treated with 100 nM of IGF-1 instead of the above peptide as a PC. The cells were cultured in a CO2 incubator at 37° C. for 72 hours.
(§2) The medium of the cultured NIH3T3 and HaCaT cells was centrifuged to settle a suspended matter, a supernatant was transferred to an e-tube, and then each of ELISA (abcam, Cat No.: ab210579, UK) and hyaluronic acid (HA) ELISA (ECHELON biosciences, Cat No.: K-1200, USA) was performed using the same.
For orientation: ELISA stands for enzyme-linked immunosorbent assay.

The test system of test [5] is NIH3T3 cells (mouse fibroblast cell line). The test is described as follows: RT-PCR expression of ECM component genes (Col1a1, fibronectin, elastin) in fibroblasts. Type of test: cell-based. Conditions: peptide 10, 50, 100 μM, 24 hours, RT-PCR vs GAPDH. As for the experimental part: First, NIH3T3 cells (mouse fibroblast cell line) were seeded in a 6-well plate at a cell density of 5×10^5 cell/well, and then the cells were cultured in DMEM medium containing 10% fetal bovine serum (FBS) for 24 hours. The cultured cells were washed once with serum free DMEM medium, and the peptide of the present invention was mixed in 1 mL of the serum free DMEM medium at each of concentrations of 10, 50, and 100 μM, and dispensed into the cells. A positive control (PC) was treated with 100 nM of bFGF instead of the above peptide. The cells were cultured in a CO2 incubator at 37° C. for 24 hours.
The cultured cells were washed twice with PBS, and RNA was extracted from the cells using easy blue (iNtRON, Cat. No.: 17061, Korea). The extracted RNA was subjected to RT-PCR using an RNA kit (enzynomics, Cat. No.: P581T, Korea). The sequences of the primers of collagen (Col1a1), fibronectin, and elastin used in RT-PCR and the sequence of the primer of GAPDH used to compare the total RNA amount of each treatment group are shown in [Table 2].

Test [6] relates to HaCaT cells (human keratinocyte cell line). The test is described as follows: Collagen ELISA and hyaluronic acid ELISA of culture medium, keratinocytes. Type of test: cell-based. The following applies: peptide 50 μM, 100 μM, 72 hours. As for the experimental part: as §1, §2

Consider EYIPNRVCRR [SEQ ID NO: 1], for which, in the test with HaCaT cells [1], the “mRNA level of AQP3” value is listed as “increased” and the “mRNA level of SIRT1” value is “increased”. Also, in the test with HaCaT cells [2], the “mRNA level of AQP3 decreased by UV irradiation” value is given as “increased again” and the “mRNA level of SIRT1 decreased by UV irradiation” value is reported as “increased again”. Further, in the test on HaCaT cells [3], the “expression of Cleaved Caspase-3 increased by UV irradiation” value is “inhibited the expression” and the “expression of Cleaved PARP-1 increased by UV irradiation” value was “inhibited the expression”. In the test on HaCaT cells [4], the “intracellular reactive oxygen species level increased by UV irradiation” value is given as “decreased”. In the test with NIH3T3 cells (ELISA of medium (FIG. 2A)), the “amount of collagen protein” value is on record as “gradually increased as a concentration of the peptide increased”. Also, in the test with NIH3T3 cells (HA ELISA of medium (FIG. 2A)), the “amount of hyaluronic acid” value is “gradually increased as a concentration of the peptide increased”. Moreover, in test [5], the “expression of the Col1a1 gene” value is on record as “gradually increased as a concentration of the peptide increased”, the “expression of the elastin gene” value is given as “gradually increased as a concentration of the peptide increased” and the “expression of the fibronectin gene” value is reported as “gradually increased as a concentration of the peptide increased”. In addition, the “amount of collagen protein” value in test [6] (ELISA of medium (FIG. 2B)) is recorded as “gradually increased as a concentration of the peptide increased”. In test [6] (HA ELISA of medium (FIG. 2B)), the “amount of hyaluronic acid” value is on record as “gradually increased as a concentration of the peptide increased”.
